How the values were obtained:
[1] = test system: rat adjuvant induced arthritis model; assay: hindpaw edema of rat adjuvant induced arthritis model; assay type: in vivo; settings: LEW rat, 10 mg/kg oral once a day day 15 to day 20, difference of hindpaw volume day 15 to day 21; disease group (solvent) 0.63 ± 0.13
Protocol: Anesthetized rats (LEW, male, 6-week-old) were immunized with M. Butyricum (5 mg/mL) at a dose of 0.1 mL/body by subcutaneous administration from the tail root. […] […] The amount of hindpaw edema was the difference in the amount between hindpaw volume on day 15 and that on day 21.

[2] = test system: rat dinitrobenzene-induced colitis model; assay: large intestine weight increase of rat dinitrobenzene-induced colitis model; assay type: in vivo; settings: Wistar rat, 10 mg/kg oral once a day, day 8; normal group 0.215 ± 0.011, pathology group 0.633 ± 0.041
Protocol: A dinitrobenzene solution (30 mg/0.1 mL) was injected into the large intestine of anesthetized rats (Wistar, male, 6-week-old). […] On day 8, the large intestine was isolated from euthanized rats, and the wet weight thereof was measured. The large intestine weight was amended to the weight per 100 g body weight of the rats on day 8.

[3] = test system: proMMP-9 production by human TNFα stimulated THP-1 cell; assay: proMMP-9 production by human TNFα stimulated THP-1 cell; assay type: cell-based; settings: THP-1 cells, human TNFα 10 ng/mL, 24 hr; IC50 from 3 points at 10, 100 and 1,000 nmol/L; read-out: proMMP-9 production suppression (IC50)
Protocol: (§1) THP-1 cell (human monocytic leukemia cell line) was adjusted to 1×10^7 cells/mL in a culture medium (10% fetal bovine serum/RPMI1640 medium), and dispensed to a 96 well multiplate. This was equilibrated under the conditions of 37° C./5% CO2, and a culture medium containing human TNFα (final concentration 10 ng/mL) and a test compound was added thereto. After incubation under the conditions of 37° C./5% CO2 for 24 hr, the culture medium was centrifuged and the culture supernatant was collected, which was subjected to the following measurement.
Quantification of proMMP-9 in Culture Supernatant
The proMMP-9 concentration of the collected culture supernatant was quantified using a commercially available measurement reagent (manufactured by GE Healthcare, MMP-9, Human, Biotrak ELISA System).
Calculation of proMMP-9 Suppression Rate
The proMMP-9 suppression rate of the test compound was calculated from the following formula: % suppression=100−((Test−Min)/(Max−Min)×100) wherein Max is proMMP-9 concentration of culture supernatant induced by stimulation with human TNFα, without addition of a test compound (added with solvent alone) Min is proMMP-9 concentration of culture supernatant without addition of a test compound (added with solvent alone) and without stimulation with human TNFα, and Test is proMMP-9 concentration of culture supernatant induced by stimulation with human TNFα when a test compound is added.
Furthermore, the concentration of the test compound necessary for suppressing proMMP-9 production by human TNFα stimulated THP-1 cell by 50% ([…]) was calculated from 3 points of proMMP-9 suppression rate at test compound concentrations of 10, 100 and 1,000 nmol/L.

[4] = test system: proMMP-2 production by THP-1 cell; assay: hemostatic type proMMP-2 production by THP-1 cell; assay type: cell-based, human; settings: THP-1 cells without stimulation, 24 hr, test compound 2 μM
Protocol: as §1, with “containing” for “containing human TNFα (final concentration 10 ng/mL) and”
Quantification of proMMP-2 in Culture Supernatant
The proMMP-2 concentration of the collected culture supernatant was quantified using a commercially available measurement reagent (manufactured by GE Healthcare, MMP-2, Human, Biotrak ELISA System).
Calculation of proMMP-2 Suppression Rate
The proMMP-2 suppression rate of the test compound was calculated from the following formula: % suppress=100−((Test/Cont)×100). wherein Cont is proMMP-2 concentration of culture supernatant without addition of a test compound (added with solvent alone) and Test is proMMP-2 concentration of culture supernatant with addition of a test compound.

[5] = test system: rat monoiodoacetic acid-induced osteoarthritis model; assay: articular joints injury of rat monoiodoacetic acid-induced osteoarthritis model; assay type: in vivo; settings: LEW rat, 10 mg/kg oral once a day to day 6, scored on day 7; disease group (solvent) 5.8 ± 0.2
Protocol: Monoiodoacetic acid solution (0.3 mg/25 μL) was injected into the right hindpaw knee joint cavity of anesthetized rats (LEW, male, 7-week-old). A test compound was orally administered once a day from immediately after monoiodoacetic acid injection to day 6 at a dose of 10 mg/kg. On day 7, right hindpaw knee joint was taken from euthanized rats, and fixed with 10% neutral formalin solution. A pathology specimen of knee joint was prepared, stained with Hematoxylin Eosin and Safranine O, and the state of joint cartilage injury was scored under microscopic observation. For articular joint injury scores, changes in each pathological finding in medial condyle of femur and medial condyle of tibia (cartilage surface tuberosity, erosion/ulcer/fibrillation, chondrocyte disorganization/disappearance/hypertrophy, reduction of Safranine staining) were divided into mild, moderate and severe according to the method of Kobayashi et al. (Kobayashi K et al. J. Vet. Med. Sci. 65, 1195 1199 2003), and indicated in the scores of 1, 2 and 3 and totaled. Furthermore, an average of the score of medial condyle of femur and that of medial condyle of tibia was determined and used as an articular joint injury score.

SMILES | IC50 [3] | other results
Cc1ccc(N2CCN(C(=O)c3ccc(N4CCCS4(=O)=O)cc3S(C)(=O)=O)CC2)c(C)c1 [Example 11, [4-(2,4-dimethylphenyl)piperazin-1-yl][4-(1,1-dioxo-1λ^6-isothiazolidin-2-yl)-2-methanesulfonylphenyl]methanone] |  | hindpaw edema volume of compound administration group [1]: 0.24 ± 0.10; large intestine weight (g/100 g body weight) [2]: 0.509 ± 0.051 g/100 g body weight
Cc1cnc(N2CCN(C(=O)c3ccc(N4CCCS4(=O)=O)cc3F)CC2)c(C)c1 [Example 130, [4-(3,5-dimethylpyridin-2-yl)piperazin-1-yl][4-(1,1-dioxo-1λ^6-isothiazolidin-2-yl)-2-fluorophenyl]methanone] | 44 nM | MMP-2 production suppression (% suppression, 2 μM) [4]: 8.0%
Cc1cnc(N2CCN(C(=O)c3ccc(N4CCCS4(=O)=O)cc3C)CC2)c(C)c1 [Example 154, [4-(3,5-Dimethylpyridin-2-yl)piperazin-1-yl][4-(1,1-dioxo-1λ^6-isothiazolidin-2-yl)-2-methylphenyl]methanone] | 82 nM | MMP-2 production suppression (% suppression, 2 μM) [4]: 13.0%; articular joint injury score of compound administration group [5]: 4.6 ± 0.4
Cc1cc(C2CC2)cnc1N1CCN(C(=O)c2ccc(CN3CCCS3(=O)=O)cc2)CC1 [Example 245, [4-(5-cyclopropyl-3-methylpyridin-2-yl)piperazin-1-yl][4-(1,1-dioxo-1λ^6-isothiazolidin-2-ylmethyl)phenyl]methanone] | 73 nM | 
Cc1cnc(N2CCN(C(=O)c3ccc(N4CCCC4=O)cc3F)CC2)c(C)c1 [Example 282, 1-{4-[4-(3,5-dimethylpyridin-2-yl)piperazine-1-carbonyl]-3-fluorophenyl}pyrrolidin-2-one] | 76 nM | 

Continued, in another order:

IC50 [3] | SMILES | other results
10 nM | Cc1cnc(N2CCN(C(=O)c3ccc(N4CCNC4=O)cc3F)CC2)c(C)c1 [Example 416, 1-{4-[4-(3,5-dimethylpyridin-2-yl)piperazine-1-carbonyl]-3-fluorophenyl}imidazolidin-2-one] | 
36 nM | CC(=O)Nc1ccc(C(=O)N2CCN(c3ccc(C)cc3C)CC2)c(S(C)(=O)=O)c1 [Example 474, N-{4-[4-(2,4-dimethylphenyl)piperazine-1-carbonyl]-3-methanesulfonylphenyl}acetamide] | 
102 nM | Cc1cnc(N2CCN(C(=O)c3ccc(N(C)S(C)(=O)=O)cc3F)CC2)c(C)c1 [Example 494, N-{4-[4-(3,5-dimethylpyridin-2-yl)piperazine-1-carbonyl]-3-fluorophenyl}-N-methylmethanesulfonamide] | 
7 nM | Cc1cc(C)c(N2CCN(C(=O)c3ccc(N4C(=O)NC(=O)C4C)nc3)CC2)nc1C (centres unmarked) [Example 549, 5-methyl-1-{5-[4-(3,5,6-trimethylpyridin-2-yl)piperazine-1-carbonyl]pyridin-2-yl}imidazolidine-2,4-dione] | 
41 nM | Cc1cc(C2CC2)cnc1N1CCN(C(=O)c2cnc(N3C(=O)CCC3C)cn2)CC1 (centres unmarked) [Example 687, 1-{5-[4-(5-cyclopropyl-3-methylpyridin-2-yl)piperazine-1-carbonyl]pyrazin-2-yl}-5-methylpyrrolidin-2-one] | 
